Data from PMC6155437 (Molecules : A Journal of Synthetic Chemistry and Natural …, 2017).

Key:
Type in all cases: in vitro ADME
[1] = target: T1, CYP1A2 (Homo sapiens, UniProt P05177); test: CYP1A2 phenacetin O-deethylase inhibition in pooled human liver microsomes (substrate cocktail, LC-MS/MS); details: at 50 µM
T1 construct: pooled human liver microsomes (0.2 mg/mL); tissue Corning Life Sciences; host or cells: pooled human liver microsomes (150 donors)
T1 sequence (P05177 1-516): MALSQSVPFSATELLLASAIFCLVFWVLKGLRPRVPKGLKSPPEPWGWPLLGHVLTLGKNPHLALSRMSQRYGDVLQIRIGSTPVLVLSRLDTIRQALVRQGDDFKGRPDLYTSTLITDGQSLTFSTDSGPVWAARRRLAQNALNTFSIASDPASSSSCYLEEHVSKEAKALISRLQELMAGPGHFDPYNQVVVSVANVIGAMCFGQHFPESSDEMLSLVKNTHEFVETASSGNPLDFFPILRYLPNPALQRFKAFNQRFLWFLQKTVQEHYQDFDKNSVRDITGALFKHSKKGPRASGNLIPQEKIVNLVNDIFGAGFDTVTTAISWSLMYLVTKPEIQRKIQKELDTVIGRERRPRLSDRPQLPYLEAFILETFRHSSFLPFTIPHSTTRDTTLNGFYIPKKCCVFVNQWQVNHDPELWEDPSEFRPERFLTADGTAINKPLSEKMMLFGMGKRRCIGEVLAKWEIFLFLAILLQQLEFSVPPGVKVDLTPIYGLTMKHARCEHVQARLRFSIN
Method: After a 3-min pre-incubation at 37 °C, the reactions were initiated by addition of NADPH and incubation proceeded for 15 min at 37 °C in a shaking water bath. […] The incubation mixtures were centrifuged (13,000× g, 4 min, 4 °C). All assays were performed in triplicate and mean values were used in calculations.
Each reaction was initiated by adding the seven-CYP probe substrate cocktail.
The metabolites formed from CYP substrates were quantified simultaneously by a LC-MS/MS method described previously. The ESI source settings in positive-ion mode for metabolite ionization were: capillary voltage, 4200 V; vaporizer temperature, 350 °C; capillary temperature, 330 °C; sheath gas pressure, 35 psi; and auxiliary gas pressure, 15 psi. […] Analytical data were processed using Xcalibur software (version 2.1, Thermo Scientific).
(§1) The apparent kinetic parameters for inhibitory potential (Ki and kinact values) and inhibition mode were estimated from the fitted curves using the Enzyme Kinetics program (ver. 1.1; Systat Software Inc., San Jose, CA, USA).

[2] = target: T2, UGT1A9 (Homo sapiens, UniProt O60656); test: UGT1A9 mycophenolic acid glucuronidation inhibition in human liver microsomes; details: at 50 µM
T2 construct: pooled human liver microsomes (0.2 mg/mL), 5 mM UDPGA; tissue Corning Life Sciences; host or cells: pooled human liver microsomes (150 donors)
T2 sequence (O60656 26-530): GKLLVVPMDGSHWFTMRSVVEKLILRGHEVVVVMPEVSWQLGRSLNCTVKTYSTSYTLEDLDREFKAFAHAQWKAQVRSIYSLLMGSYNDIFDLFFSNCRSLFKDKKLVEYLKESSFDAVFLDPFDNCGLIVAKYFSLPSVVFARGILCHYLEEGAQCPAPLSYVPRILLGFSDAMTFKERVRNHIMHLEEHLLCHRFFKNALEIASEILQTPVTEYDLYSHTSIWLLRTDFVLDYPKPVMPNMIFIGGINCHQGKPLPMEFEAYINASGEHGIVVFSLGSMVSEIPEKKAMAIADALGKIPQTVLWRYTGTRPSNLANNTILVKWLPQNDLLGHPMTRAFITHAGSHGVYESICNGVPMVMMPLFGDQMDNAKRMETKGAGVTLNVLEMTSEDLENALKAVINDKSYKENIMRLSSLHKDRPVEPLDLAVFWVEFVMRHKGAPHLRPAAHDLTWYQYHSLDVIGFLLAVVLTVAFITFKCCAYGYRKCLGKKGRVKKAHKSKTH
Method: (§2) After 3 min of pre-incubation at 37 °C, the reactions were initiated by addition of UDPGA; incubation continued for 60 min at 37 °C in a shaking water bath. The reaction was stopped by placing the tubes on ice and adding 50 µL ice-cold acetonitrile containing internal standards (propofol glucuronide for chenodeoxycholic acid 24-acyl-β-glucuronide and mycophenolic acid glucuronide, and meloxicam for SN-38 glucuronide, trifluoperazine glucuronide, N-acetylserotonin β-D-glucuronide, and naloxone 3-β-D-glucuronide). The incubation mixtures were centrifuged (13,000× g, 4 min, 4 °C). All assays were performed in triplicate and average values were used in calculations.
(§3) The metabolites formed from the six UGT cocktail substrates were measured simultaneously using the LC-MS/MS method. The ESI source settings in both positive- and negative-ion modes for metabolite ionization were: capillary voltage, 4200 V; vaporizer temperature, 350 °C; capillary temperature, 330 °C; sheath gas pressure, 35 psi; and auxiliary gas pressure, 15 psi. […] Data were processed using Xcalibur software.
as §1

[3] = target: T3, UGT2B7 (Homo sapiens, UniProt P16662); test: UGT2B7 naloxone 3-β-D-glucuronidation inhibition in human liver microsomes
T3 construct: tissue Corning Life Sciences; host or cells: pooled human liver microsomes (150 donors)
T3 sequence (P16662 24-529): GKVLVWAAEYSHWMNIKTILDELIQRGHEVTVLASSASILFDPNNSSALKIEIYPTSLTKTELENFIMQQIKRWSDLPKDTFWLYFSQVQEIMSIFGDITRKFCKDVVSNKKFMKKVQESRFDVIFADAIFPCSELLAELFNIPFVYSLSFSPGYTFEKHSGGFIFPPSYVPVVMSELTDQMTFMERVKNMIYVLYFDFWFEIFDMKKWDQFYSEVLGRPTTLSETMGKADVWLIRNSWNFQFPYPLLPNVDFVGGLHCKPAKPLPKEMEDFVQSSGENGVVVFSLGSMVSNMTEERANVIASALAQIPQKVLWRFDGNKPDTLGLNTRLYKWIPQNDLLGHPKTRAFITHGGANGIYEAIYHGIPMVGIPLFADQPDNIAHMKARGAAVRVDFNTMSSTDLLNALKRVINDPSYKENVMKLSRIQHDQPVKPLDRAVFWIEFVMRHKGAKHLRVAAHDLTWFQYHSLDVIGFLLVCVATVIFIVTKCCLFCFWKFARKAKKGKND
Method: as §2
The reactions were initiated by addition of UDPGA at 37 °C and stopped after 60 min by placing the incubation tubes on ice and adding 100 μL of ice-cold methanol containing propofol glucuronide (internal standard for UGT1A3) or meloxicam (internal standard for UGT2B7). The incubation mixtures were centrifuged (13,000× g, 4 min, 4 °C), and then, 50 μL of the supernatant was diluted with 50 μL of water. Aliquots (5 μL) of the diluted supernatants were analyzed by LC-MS/MS.
as §3, §1

O=C(c1cccc2ccccc12)c1cn(CCCCCF)c2ccccc12 [AM-2201, 1-(5-fluoropentyl-1H-indol-3-yl)-(naphthalene-1-yl)methanone]
inhibition of CYP1A2-mediated phenacetin O-deethylation [1]: negligibly inhibited
inhibition of UGT1A9-catalyzed mycophenolic acid glucuronidation [2]: negligibly inhibited
Ki [3]: 10 µM
IC50 ([3]; IC50, UGT2B7-catalyzed naloxone 3-glucuronidation, abstract): 10 µM
IC50 ([3]; IC50, UGT2B7 naloxone 3-β-D-glucuronidation, 1 μM naloxone, human liver microsomes): 14.5 µM
Inhibition Mode ([3]; UGT2B7 naloxone 3-β-D-glucuronidation): mixed inhibition
